Data set [1] in a line: Pharmacokinetic modeling of active element (iodine or tantalum) concentration in pig blood/plasma after contrast agent injection. It counts as in vivo. Particulars: plasma, other: injection. The source says:
Given this illustration of endothelial permeability, it may be appreciated that, immediately after administration, small-molecule contrast agents begin to distribute from the blood pool into interstitial fluid. Due to this “distribution phase”, the concentration of the contrast agent in the blood pool becomes immediately diluted by a factor of two or more in the first minutes after injection. This is illustrated in FIG. 3 where the concentration of the contrast agent iopromide in pig plasma is illustrated as a function of time, with both a distribution phase and elimination phase being evident.
This distribution occurs at a relatively fast rate, with a half-life (T½a) on the order of minutes and is denoted as the distribution phase in FIG. 3. […] Therefore, the concentration of the molecule in the blood would decrease approximately four fold in much less than 10 minutes due to this initial distribution process alone. However, the drug is simultaneously cleared from the blood by the kidneys at a slower rate, with a T½ on the order of 1-2 hours (denoted as the elimination phase in FIG. 3), resulting in an additional lowering of the concentration in the blood.
In a separate analysis, PK modeling was obtained by analyzing the concentration of the active element (iodine or tantalum) in blood samples taken from 2 to 240 minutes after contrast agent injection. […]

Data set [2] can be described thus: Contrast-enhanced liver CT scans of swine in fat-equivalent encasements, multi-reader image quality assessment. It counts as in vivo. Particulars: swine CT in adipose-equivalent encasements, relative to TaCZ, FIG. 6. As to the method:
The scans were performed one day to one week apart, and the scan sequence was randomized. During scanning, the pigs were encased in plastic fat-equivalent encasements to emulate a range of large patient sizes. Scans were performed in the pigs' livers at several time points from 30 to 300 seconds after injection. Image quality at each time point was graded by radiologists using predefined criteria such as image contrast in specified vessels.
In FIG. 6, images 220 on the left were acquired using a conventional iodinated contrast agent, iopromide, while images 220 on the right were acquired using the TaCZ nanoparticle contrast agent described above. Vertically, the images are arranged based on patient size.
In FIG. 7, the results of the multi-reader assessment are provided in graphical form.

Structures are written as SMILES. Where two headings read alike, the source gives them in different places.

As to `COCC(=O)Nc1c(I)c(C(=O)NCC(O)CO)c(I)c(C(=O)N(C)CC(O)CO)c1I` (stereo not drawn) [iopromide], the half-life in data set [1] (FIG. 3, read-out: distribution-phase half-life (T½a) in plasma) was < 0.0833 h; in data set [1] (cleared from the blood by the kidneys, FIG. 3, read-out: clearance half-life T½ (elimination phase)), 1 to 2 h. Also, the “image contrast enhancement as patient size (and X-ray energy) increases” value in data set [2] is listed as “decreases”.

The record behind these values is US20190001002A1, “DRUG DESIGN FOR APPLICATION-DEPENDENT PAYLOAD, CONTROLLED PHARMACOKINETIC DISTRIBUTION, AND RENAL CLEARANCE” (General Electric Company, priority 2017, published 2019).
